Data: patent publication US6265423A, “Aromatic polycyclic retinoid-type derivatives, method for preparing same, and use thereof for making pharmaceutical and cosmetic compositions” (priority 1996, dated 2001)
Like-named read-outs stand apart in the source and are kept apart here.

Experiments:
[1] = tested on: A-427 human pulmonary cancer cells; assay: MTT test, proliferation of A-427; details: for activity at 100 µM / activity at 1 µM / activity at 0.01 µM: Homo sapiens, A-427, 72 h, read-out: level of proliferation; for effect on cellular increase, A-427 (in words): MTT test
[2] = tested on: ZR-75-1 human mammary cancer cells; assay: MTT test, proliferation of ZR-75-1; assay type: cell-based; details: for activity at 100 µM / activity at 1 µM / activity at 0.01 µM: Homo sapiens, read-out: level of proliferation; for effect on cellular increase, ZR-75-1 (in words): MTT test
Summary of the method: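 After 24 h seeding, cells in MEM with 5% decomplemented FCS at 37° C were exposed to compound at 10^-8 M, 10^-6 M and 10^-4 M. Viability was assessed by MTT reduction to formazan, dissolved in DMSO. Mean optical density is expressed as % of untreated control (100%), in 6 duplicates.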

[3] = tested on: ERE-βGlob-Luc, MELN lineage (MCF-7); assay: Anti-oestrogenic effect, MELN lineage activated by estradiol; assay type: cell-based, human; details: for anti-oestrogenic effect (in words): estradiol-activated MELN cells; for inhibition: 10^-6 M
Summary of the method: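 MCF-7-derived MELN cells stably carry luciferase driven by chicken vitellogenin A2 ERE and βGlobin promoter; stimulated with 10^-9 M estradiol, run in duplicate. Basal activity is set with 1 μM 4-OH-tamoxifen and subtracted. Effect expressed as percentage.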

[4] = tested on: human mammary tumoral lineage T-47D; assay: Clonogenic test (soft agar), growth of cellular colonies; assay type: cell-based; details: for activity at 0.1 µM / activity at 0.01 µM / activity at 0.001 µM / activity at 0.0001 µM: 504 h, read-out: mean number of cellular colonies in relation to control; for effect on growth of cellular colonies (in words): soft agar
Summary of the method: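 T-47D cells of over 90% viability were seeded in 0.3% agar over a 0.5% agar base and kept at 37 °C with 5% CO2 for 21 days after treatment. After staining with MTT (1 mg/ml, at least 3 h), colonies larger than 100 μm² were counted microscopically and expressed as a percentage of control.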

Gal4-RARγ = assay: Transactivation, chimerical receptor Gal4-RARγ (transitory transfection of HeLa); assay type: cell-based; details: 100% = TTNPB 10^-8 M
[5] = ZR-75-1, 10^-4 M, 72 h, control = 100%
[6] = ZR-75-1, 10^-6 M, 72 h, control = 100%
[7] = ZR-75-1, 10^-8 M, 72 h, control = 100%
[8] = Homo sapiens, MCF7, read-out: anti-oestrogenic effect, inhibition
[9] = Homo sapiens, T47D, T-47D, 10^-7 M, 21 days, control = 100%
[10] = Homo sapiens, T47D, T-47D, 10^-8 M, 21 days, control = 100%
[11] = Homo sapiens, T47D, T-47D, 10^-9 M, 21 days, control = 100%
[12] = Homo sapiens, T47D, T-47D, 10^-10 M, 21 days, control = 100%
[13] = Homo sapiens, MCF7, cells activated by 10^-9 M estradiol
[14] = Homo sapiens, MCF7, 10^-7 M, cells activated by 10^-9 M estradiol, read-out: anti-oestrogenic effect, inhibition
[15] = Homo sapiens, MCF7, 10^-8 M, cells activated by 10^-9 M estradiol, read-out: anti-oestrogenic effect, inhibition

Structure (SMILES) | activity at 100 µM [1] | activity at 100 µM [2, 5] | activity at 1 µM [2, 6] | activity at 0.01 µM [2, 7] | activity at 0.1 µM [4, 9] | activity at 0.01 µM [4, 10] | activity at 0.001 µM [4, 11] | activity at 0.0001 µM [4, 12] | effect on growth of cellular colonies (in words) ([4]; T-47D) | activity at 1 µM [1] | anti-oestrogenic effect (in words) [3] | GAL4-RAR RARγ transactivation (Gal4-RARγ; 10^-6 M) | inhibition [3, 13] | activity at 0.01 µM [1] | inhibition at 0.1 µM [3, 14] | further results
CC(C=C/C=C(C)\C=C\C1=C(C)CCCC1(C)C)=CC(=O)O [CB13407, 9-cis retinoic acid, reference compound] | 5.9% | 39.2% | 130% | 137% | 6.7% | 45.6% | 52.8% | 54.9% | significant and dose dependent inhibiting activity |  |  |  |  |  |  | effect on cellular increase, ZR-75-1 (in words) [2]: stimulates the cellular increase at 10^-6 M and 10^-8 M; inhibition at 0.1 µM [3, 8]: 35%
CC1=C(/C=C/C(C)=C/C=C/C(C)=C/C(=O)O)C(C)(C)CCC1 [CB16178, all-trans retinoic acid, reference compound] | 1.5% | 7.3% | 57.2% | 46.9% |  |  |  |  |  | 68.2% | reduces the cellular growth and the expression of oestrogen-dependent genes |  |  |  |  | effect on cellular increase, ZR-75-1 (in words) [2]: inhibit the cellular increase of the two mammary lineages at the concentrations tested; inhibition at 0.1 µM [3, 8]: 35%
C/C(=C/c1ccc2c(c1)C(C)(C)CCC2(C)C)c1ccc(C(=O)O)nc1 [CB16279, (Z) 5-[1-(5,6,7,8-tetrahydro-5,5,8,8-tetramethyl-2-naphthalenyl)-2-propenyl]pyridinyl-2-carboxylic acid] |  |  |  |  | 102 ± 3.4% |  | 110 ± 1.5% |  | does not induce any significant modification in the growth of the cellular colonies |  | permit a transrepression of a controlled gene by an ERE | 59% | 32% |  |  | 
C/C(=C/c1ccc2c(c1)C(C)(C)CCC2(C)C)c1ccc(C(=O)O)cc1 [CB28628, reference compound] | 2.5% | 19.4% | 83.5% | 80.8% | 21.4% | 97.6% | 89.2% |  | strongly and significantly inhibits the growth of the cellular colonies at the concentration of 10^-7 M but very rapidly loses its activity beyond the concentration of 10^-8 M | 86.8% |  |  | 29 to 41% | 86.7% | 31% | GAL4-RAR RARγ transactivation (Gal4-RARγ; 10^-7 M): 106%
CC1(C)CCC(C)(C)c2cc(/C=C(\c3ccc(C(=O)O)cc3)C(F)(F)F)ccc21 [CB36493, (E) 4-[1-trifluoromethyl-2-(5,6,7,8-tetrahydro-5,5,8,8-tetramethyl-2-naphthalenyl)-1-ethenyl]benzoic acid] | 1.6% | 8.6% | 108% | 108% |  | 17.4 ± 2% | 24.8 ± 0.5% | 35.8 ± 3.2% | as active as the reference products CB13407 (9-cis RA) and LGD1069 | 87.2% | permit a transrepression of a controlled gene by an ERE | 50% | 17 to 32% | 89.9% | 0% | 
C/C(=C/c1ccc2c(c1)C(C)(C)CCC2(C)C)c1ccc(C(=O)O)cn1 [CB38416, (Z) 2-[1-(5,6,7,8-tetrahydro-5,5,8,8-tetramethyl-2-naphthalenyl)-2-propenyl]pyridinyl-5-carboxylic acid] | 24.1% | 55.8% | 98.3% | 122% | 11.6 ± 1.9% | 15.3 ± 1.7% | 20 ± 0.2% |  | as active as the reference products CB13407 (9-cis RA) and LGD1069 | 105% | permit a transrepression of a controlled gene by an ERE | 99% | 19% | 106% | 0% | 
C/C(=C\c1cc2c(cc1C)C(C)(C)CCC2(C)C)c1ccc(C(=O)O)cc1 [CB71802] | 1% | 7.8% | 96% | 101% |  | 45.2 ± 4.8% | 92.5 ± 9.6% | 104 ± 2.3% |  | 65.6% |  |  | 32 to 48% | 69.7% | 37% | effect on cellular increase, A-427 (in words) [1]: inhibits the increase of these two pulmonary lineages the most strongly; inhibition at 0.01 µM [3, 15]: 5%
C/C(=C\c1ccc2c(c1)C(C)(C)CCC2(C)C)c1ccc(C(=O)Nc2nnn[nH]2)cc1 [CB73364] | 0.1% | 0% | 101% | 119% |  | 10.3 ± 2.8% | 54.9 ± 5.8% | 99.3 ± 7.8% | inhibit the growth of the cellular colonies | 87.2% |  |  | 20 to 41% | 92.7% | 24% | inhibition at 0.01 µM [3, 15]: 13%; inhibition at 0.01 µM ([4]; Homo sapiens, T47D, T-47D, 10^-8 M, read-out: inhibition of colony growth): 69.7%
CC1(C)CCC(C)(C)c2cc(/C=C(\c3ccc(-c4nnn[nH]4)cc3)C(F)(F)F)ccc21 [CB77402, (E) 5-[4-[1-trifluoromethyl-2-(5,6,7,8-tetrahydro-5,5,8,8-tetramethyl-2-naphthalenyl)-1-ethenyl]phenyl]-1H-tetrazole] | 0.2% | 7.5% | 96.6% | 99.9% |  |  |  |  |  | 77.6% | inactive | 0% | 0% | 82.3% |  | effect on cellular increase, A-427 (in words) [1]: show activity on the increase of these two lineages
Cc1cc2c(cc1C(=O)c1ccc(C(=O)O)cc1)C(C)(C)CCC2(C)C [LGD-CB14499, reference compound] |  |  |  |  |  |  |  |  |  |  | inactive | 13% |  |  |  | activity at 0.01 µM ([2]; ZR-75-1, 72 h): 107%; activity at 1 µM ([2]; ZR-75-1, 72 h): 104%; activity at 100 µM ([2]; ZR-75-1, 72 h): 42.4%; GAL4-RAR RARγ transactivation (Gal4-RARγ; 10^-7 M): 0%; GAL4-RAR RARγ transactivation (Gal4-RARγ; 10^-8 M): 0%; inhibition at 0.1 µM [3, 8]: 0%; inhibition at 1 µM [3, 8]: 0%
C/C(=C\c1ccc(C(=O)O)cc1)c1ccc2c(c1)C(C)(C)CCC2(C)C [TTNPB, reference compound] | 3.6% | 15.7% | 69.8% | 60.6% |  |  |  |  | more active than the product CB36493 of the cis series (Z) | 78.5% |  |  |  | 78.9% |  | effect on cellular increase, A-427 (in words) [1]: inhibits the A-427 lineage at 10^-6 M and 10^-8 M; effect on cellular increase, ZR-75-1 (in words) [2]: inhibit the cellular increase of the two mammary lineages at the concentrations tested; inhibition at 0.01 µM [3, 8]: 30 to 41%; anti-oestrogenic effect, inhibition (of the order of) ([3]; MELN, estradiol 10^-9 M): ~40%; activity at 0.0001 µM ([4]; Homo sapiens, T47D): 34.1%; activity at 0.001 µM ([4]; Homo sapiens, T47D): 5.5%; activity at 0.01 µM ([4]; Homo sapiens, T47D): 2.1%; activity at 0.1 µM ([4]; Homo sapiens, T47D): 1.3%; inhibition at 0.0001 µM ([4]; Homo sapiens, T47D, read-out: inhibition of colony growth): 66%; effect on growth of cellular colonies (in words) ([4]; T-47D, listed as CB01570): inhibits very strongly, in a significant and dose dependent manner the growth of cellular colonies
